Key:
RET^WT = target: T1, RET^WT (Homo sapiens, UniProt P07949); experiment: In vitro enzymatic activity assay on RET^WT (HTRF); type: biochemical; details: GST-RET^WT (658-1114 aa) 0.5 nM, ATP 25 μM
T1 construct: GST-RET^WT (658-1114 aa, final concentration of 0.5 nM)
T1 sequence (P07949 658-1114): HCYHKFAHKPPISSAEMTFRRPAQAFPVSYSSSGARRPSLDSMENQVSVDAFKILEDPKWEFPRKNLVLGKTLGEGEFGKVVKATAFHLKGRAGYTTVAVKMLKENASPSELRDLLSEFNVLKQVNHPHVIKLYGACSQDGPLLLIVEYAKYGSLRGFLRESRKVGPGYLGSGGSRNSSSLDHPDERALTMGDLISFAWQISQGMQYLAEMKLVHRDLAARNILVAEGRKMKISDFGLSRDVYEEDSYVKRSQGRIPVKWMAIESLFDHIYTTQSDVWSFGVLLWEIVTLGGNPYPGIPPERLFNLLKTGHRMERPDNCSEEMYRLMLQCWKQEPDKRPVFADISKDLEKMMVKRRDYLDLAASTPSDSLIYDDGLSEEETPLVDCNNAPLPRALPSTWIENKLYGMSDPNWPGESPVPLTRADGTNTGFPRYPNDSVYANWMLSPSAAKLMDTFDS
Experimental: 1. In Vitro Enzymatic Activity Assay for Compounds on RET^WT
The compounds were diluted 5-fold with 100% DMSO starting from 0.2 mM (7 concentrations in total), and 2 μL of each concentration was added to 48 μL of reaction buffer (50 mM HEPES pH7.5, 0.1 mM Na3VO4, 5 mM MgCl2. 1 mM DTT, 0.001% Tween 20, and 100 μg/ml BSA) for dilution and mixing.
The 384-well plate was placed in an incubator and reacted at 23° C. for 2 h before the reaction was stopped by the addition of 5 μL of TK Antibody (purchased from Cisbio) and 5 μL of Streptavidin-XL665 (purchased from Cisbio). […] The enzymatic activity signal of RET^WT was measured at 7 concentrations for each compound and the data were calculated using GraphPad Prism software to obtain the IC50 value for the compound.

VEGFR2 = VEGFR2 (Homo sapiens, UniProt P35968); experiment: In vitro enzymatic activity assay on VEGFR2 (HTRF); type: biochemical; details: GST-VEGFR2 0.1 nM, ATP 2.5 μM
Experimental: 3. n Vitro Enzymatic Activity Assay for Compounds on VEGFR2
The compounds were diluted 5-fold with 100% DMSO starting from 1 mM (7 concentrations in total), and 2 μL of each concentration was added to 48 μL of reaction buffer (50 mM HEPES pH 7.5, 0.1 mM Na3VO4, 5 mM MgCl2, 1 mM MnCl2, 1 mM DTT, 0.001% Tween 20, and 100 μg/ml BSA) for dilution and mixing. 2.5 μL of compounds and 5 μL of GST-VEGFR2 (final concentration of 0.1 nM) were added to a 384-well plate (OptiPlate-384, purchased from PerkinElmer), the mixture was mixed by centrifugation, and 2.5 μL of ATP (final concentration of 2.5 μM) and TK Peptide Substrate mixture (final concentration of 1 μM, purchased from Cisbio) were added to start the reaction, with a total reaction volume of 10 μL. The 384-well plate was placed in an incubator and reacted at 23° C. for 1.5 h before the reaction was stopped by the addition of 5 μL of TK Antibody (purchased from Cisbio) and 5 μL of Streptavidin-XL665 (purchased from Cisbio). After further incubation in the incubator for 1 h. fluorescence values (excitation at 320 nm, detecting emitted light at 665 nm and 620 nm, and a ratio of the two as an enzyme activity signal) were read on Envision (purchased from PerkinElmer). The enzymatic activity signal of VEGFR2 was measured at 7 concentrations for each compound and the data were calculated using GraphPad Prism software to obtain the IC50 value for the compound.

Sequence of VEGFR2 (P35968 20-1356): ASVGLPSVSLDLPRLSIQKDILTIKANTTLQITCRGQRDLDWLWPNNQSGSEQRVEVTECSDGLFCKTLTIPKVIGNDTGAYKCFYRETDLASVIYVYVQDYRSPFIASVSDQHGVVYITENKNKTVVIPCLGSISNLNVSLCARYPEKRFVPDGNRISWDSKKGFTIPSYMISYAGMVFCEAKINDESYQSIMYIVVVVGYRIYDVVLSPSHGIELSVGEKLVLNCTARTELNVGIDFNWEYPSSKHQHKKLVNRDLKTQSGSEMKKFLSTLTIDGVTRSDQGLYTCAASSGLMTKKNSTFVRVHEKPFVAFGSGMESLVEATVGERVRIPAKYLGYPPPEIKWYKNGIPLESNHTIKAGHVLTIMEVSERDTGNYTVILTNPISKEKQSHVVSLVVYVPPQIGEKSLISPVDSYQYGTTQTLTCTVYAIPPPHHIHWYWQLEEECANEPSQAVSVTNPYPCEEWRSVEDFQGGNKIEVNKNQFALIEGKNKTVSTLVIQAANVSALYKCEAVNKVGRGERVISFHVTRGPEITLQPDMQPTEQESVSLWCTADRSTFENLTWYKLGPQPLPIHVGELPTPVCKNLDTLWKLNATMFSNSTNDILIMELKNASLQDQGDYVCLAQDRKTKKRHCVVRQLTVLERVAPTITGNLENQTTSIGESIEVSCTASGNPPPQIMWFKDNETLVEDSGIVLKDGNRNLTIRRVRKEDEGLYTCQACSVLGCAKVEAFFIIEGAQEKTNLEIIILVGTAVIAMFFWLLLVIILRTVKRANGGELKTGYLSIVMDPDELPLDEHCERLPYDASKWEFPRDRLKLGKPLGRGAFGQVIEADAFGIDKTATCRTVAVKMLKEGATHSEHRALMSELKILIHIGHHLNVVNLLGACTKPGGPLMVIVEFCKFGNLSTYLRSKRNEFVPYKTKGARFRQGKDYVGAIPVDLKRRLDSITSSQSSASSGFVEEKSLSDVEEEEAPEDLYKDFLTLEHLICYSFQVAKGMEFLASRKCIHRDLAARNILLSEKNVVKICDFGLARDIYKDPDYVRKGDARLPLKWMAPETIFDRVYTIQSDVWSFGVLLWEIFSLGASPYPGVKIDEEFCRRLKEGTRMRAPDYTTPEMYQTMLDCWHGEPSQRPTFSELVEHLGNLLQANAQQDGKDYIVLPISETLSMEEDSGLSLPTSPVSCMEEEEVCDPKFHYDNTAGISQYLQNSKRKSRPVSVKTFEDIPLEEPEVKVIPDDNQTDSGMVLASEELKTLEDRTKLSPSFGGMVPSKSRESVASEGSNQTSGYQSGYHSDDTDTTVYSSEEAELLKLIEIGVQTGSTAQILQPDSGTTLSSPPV

| IC50 (RET^WT) | IC50 (VEGFR2) | SMILES |
| --- | --- | --- |
| 1.31 nM |  | CS(=O)(=O)c1ccc(CN2CCN(c3ccc(-c4cc(N5CC(C#N)C5)cn5ncc(C#N)c45)cn3)CC2)cc1 [Example 40, 6-(3-cyanoazetidin-1-yl)-4-(6-(4-(4-(methylsulfonyl)benzyl)piperazin-1-yl)pyridin-3-yl)pyrazolo[1,5-α]pyridin-3-carbonitrile] |
| 0.57 nM | 10.1 nM | CS(=O)(=O)c1ccccc1CN1CCN(c2ccc(-c3cc(-c4cnn(C(F)F)c4)cn4ncc(C#N)c34)cn2)CC1 [Example 48, 6-(1-difluoromethyl-1Hpyrazol-4-yl)-4-(6-(4-(2-(methylsulfonyl)benzyl)piperazin-1-yl)pyridin-3-yl)pyrazolo[1,5-a]pyridine-3-carbonitrile] |
| 0.136 nM | 0.734 nM | CSc1ccc(CN2C3CC2CN(c2ccc(-c4cc(-c5cnn(C(F)F)c5)cn5ncc(C#N)c45)cn2)C3)cc1 [Example 82, 6-(1-difluoromethyl-1Hpyrazol-4-yl)-4-(6-(6-(4-(methylthio)benzyl)-3,6-diazabicyclo[3.1.1]heptan-3-yl)pyridin-3-yl)pyrazolo[1,5-a]pyridine-3-carbonitrile] |
| 1.73 nM | 37 nM | CSc1ccc(CN2C3CC2CN(c2ccc(-c4cc(OCC(C)(C)O)cn5ncc(C#N)c45)cn2)C3)cn1 [Example 11, 6-(2-hydroxy-2-methylpropoxy)-4-(6-(6-((6-(methylthio)pyridin-3-yl)methyl)-3,6-diazabicyclo[3.1.1]heptan-3-yl)pyridin-3-yl)pyrazolo[1,5-a]pyridine-3-carbonitrile] |
| 0.268 nM | 2.94 nM | CSc1ccc(CN2C3CC2CN(c2ccc(-c4cc(-c5cnn(C(F)F)c5)cn5ncc(C#N)c45)cn2)C3)nc1 [Example 66, 6-(1-(difluoromethyl)-1Hpyrazol-4-yl)-4-(6-(6-((5-(methylthio)pyridin-2-yl)methyl)-3,6-diazabicyclo[3.1.1]heptan-3-yl)pyridin-3-yl)pyrazolo[1,5-a]pyridine-3-carbonitrile] |
| 0.94 nM | 18.2 nM | CS(=O)(=O)c1ccc(CN2CCN(c3ccc(-c4cc(-c5cnn(C(F)F)c5)cn5ncc(C#N)c45)cn3)CC2)cc1 [Example 49, 6-(1-difluoromethyl-1Hpyrazol-4-yl)-4(6-(4-(4-(methylsulfonyl)benzyl)piperazin-1-yl)pyridin-3-yl)pyrazolo[1,5-a]pyridine-3-carbonitrile] |
| 0.328 nM | 6.2 nM | CSc1cccc(CN2CCN(c3ccc(-c4cc(-c5cnn(C)c5)cn5ncc(C#N)c45)cn3)CC2)n1 [Example 51, 6-(1-methyl-1Hpyrazol-4-yl)-4-(6-(4-((6-(methylthio)pyridin-2-yl)methyl)piperazin-1-yl)pyridin-3-yl)pyrazolo[1,5-a]pyridine-3-carbonitrile] |
| 0.943 nM |  | CSc1ccc(CN2CCN(c3ccc(-c4cc(-c5cnn(C(F)F)c5)cn5ncc(C#N)c45)cn3)CC2)cn1 [Example 75, 6-(1-(difluoromethyl)-1Hpyrazol-4-yl)-4-(6-(4-((6-(methylthio)pyridin-3-yl)methyl)piperazin-1-yl)pyridin-3-yl) pyrazolo[1,5-a] pyridine-3-carbonitrile] |
| 1.33 nM |  | CSc1ccc(CN2CCN(c3ccc(-c4cc(-c5cnn(C(F)F)c5)cn5ncc(C#N)c45)cn3)CC2)cc1 [Example 81, 4-(6-(4-(4-(methylthio)benzyl)piperazin-1-yl)pyridin-3-yl)-6-(1-(difluoromethyl)-1Hpyrazol-4-yl)pyrazolo[1,5-a]pyridine-3-carbonitrile] |
| 2.96 nM |  | CS(=O)(=O)c1ccc(CN2CCN(c3ccc(-c4cc(-c5cnn(C(F)F)c5)cn5ncc(C#N)c45)cn3)CC2)cn1 [Example 63, 6-(1-(difluoromethyl)-1Hpyrazol-4-yl)-4-(6-(4-((6-(methylsulfonyl)pyridin-3-yl)methyl)piperazin-1-yl)pyridin-3-yl)pyrazolo[1,5-a]pyridine-3-carbonitrile] |
| 1.11 nM |  | COC/C=C/C(=O)N1C2CC1CN(c1ccc(-c3cc(-c4cnn(C(F)F)c4)cn4ncc(C#N)c34)cn1)C2 [Example 62, (E)-6-(1-(difluoromethyl)-1Hpyrazol-4-yl)-4-(6-(6-(4-methoxybut-2-enoyl)-3,6-diazabicyclo[3.1.1]heptan-3-yl)pyridin-3-yl)pyrazolo[1,5-a]pyridine-3-carbonitrile] |
| 1.34 nM |  | COc1ncc(CN2C3CC2CN(c2ccc(-c4cc(N5CC(C)(O)C5)cn5ncc(C#N)c45)cn2)C3)cn1 [Example 58, 6-(3-hydroxy-3-methylazetidin-1-yl)-4-(6-(6-((2-methoxypyrimidin-5-yl)methyl)-3,6-diazabicyclo[3.1.1]heptan-3-yl)pyridin-3-yl)pyrazolo[1,5-a]pyridine-3-carbonitrile] |
| 0.12 nM | 4.59 nM | N#Cc1cnn2cc(-c3cnn(C(F)F)c3)cc(-c3ccc(N4CC5CC(C4)N5Cc4ccc([N+](=O)[O-])cc4)nc3)c12 [Example 83, 4-(6-(6-(4-nitrobenzyl)-3,6-diazabicyclo[3.1.1]heptan-3-yl)pyridin-3-yl)-6-(1-(difluoromethyl)-1Hpyrazol-4-yl)pyrazolo[1,5-a]pyridine-3-carbonitrile] |
| 1.58 nM |  | CS(=O)(=O)c1ccc(CN2CCN(c3ccc(-c4cc(-c5cnn(C(F)F)c5)cn5ncc(C#N)c45)cn3)CC2)nc1 [Example 80, 6-(1-(difluoromethyl)-1Hpyrazol-4-yl)-4-(6-(4-((5-(methylsulfonyl)pyridin-2-yl)methyl)piperazin-1-yl)pyridin-3-yl) pyrazolo[1,5-a] pyridine-3-carbonitrile] |
| 0.247 nM |  | CCn1cc(-c2cc(-c3ccc(N4CC5CC(C4)N5Cc4ccc(S(C)(=O)=O)cc4)nc3)c3c(C#N)cnn3c2)cn1 [Example 44, 6-(1-ethyl-1Hpyrazol-4-yl)-4-(6-(6-(4-(methylsulfonyl)benzyl)-3,6-diazabicyclo[3.1.1]heptan-3-yl)pyridin-3 yl)pyrazolo[1,5-a]pyridine-3-carbonitrile] |
| 0.066 nM | 0.154 nM | CSc1ccc(CN2C3CC2CN(c2ccc(-c4cc(-c5cnn(C)c5)cn5ncc(C#N)c45)cn2)C3)cc1 [Example 59, 6-(1-methyl-1Hpyrazol-4-yl)-4-(6-(6-(4-(methylthio)benzyl)-3,6-diazabicyclo[3.1.1]heptan-3-yl)pyridin-3-yl)pyrazolo[1,5-a]pyridine-3-carbonitrile] |
| 1.07 nM | 10.1 nM | CN(C)C(=O)Cn1cc(-c2cc(-c3ccc(N4CCN(Cc5ccc(S(C)(=O)=O)cc5)CC4)nc3)c3c(C#N)cnn3c2)cn1 [Example 54] |
|  | 13 nM | CCSc1ccc(CN2CCN(c3ccc(-c4cc(-c5cnn(C)c5)cn5ncc(C#N)c45)cn3)CC2)cn1 [Example 18, 6-(1-methyl-1Hpyrazol-4-yl)-4(6-(4-((6-(ethylthio)pyridin-3-yl)methyl)piperazin-1-yl)pyridin-3-yl)pyrazolo[1,5-a]pyridine-3-carbonitnile] |
|  | 8.94 nM | Cn1cc(-c2cc(-c3ccc(N4CC5CCC(C4)N5Cc4ccc(S(C)(=O)=O)cc4)nc3)c3c(C#N)cnn3c2)cn1 [Example 57, 6-(1-methyl-1Hpyrazol-4-yl) 4-(6-(8-(4-(methylsulfonyl)benzyl)-3,8-diazabicyclo[3.2.1]octan-3-yl)pyridin-3-yl)pyrazolo[1,5-a]pyridine-3-carbonitrile] |
| 0.181 nM |  | CSc1ccc(CN2C3CC2CN(c2ccc(-c4cc(-c5cnn(C)c5)cn5ncc(C#N)c45)cn2)C3)cn1 [Example 50, 6-(1-methyl-1Hpyrazol-4-yl)-4-(6-(6-((6-(methylthio)pyridin-3-yl)methyl)-3,6-diazabicyclo[3.1.1]heptan-3-yl)pyridin-3-yl)pyrazolo[1,5-a]pyridine-3-carbonitrile] |

Reference: US12583855B2, “RET selective inhibitor, preparation method therefor and use thereof” (SHOUYAO HOLDINGS (BEIJING) CO., LTD., priority 2019, dated 2026)
